One series addresses T1, aldehyde dehydrogenase (Rattus norvegicus, UniProt P11884).
T1 sequence (P11884 20-519): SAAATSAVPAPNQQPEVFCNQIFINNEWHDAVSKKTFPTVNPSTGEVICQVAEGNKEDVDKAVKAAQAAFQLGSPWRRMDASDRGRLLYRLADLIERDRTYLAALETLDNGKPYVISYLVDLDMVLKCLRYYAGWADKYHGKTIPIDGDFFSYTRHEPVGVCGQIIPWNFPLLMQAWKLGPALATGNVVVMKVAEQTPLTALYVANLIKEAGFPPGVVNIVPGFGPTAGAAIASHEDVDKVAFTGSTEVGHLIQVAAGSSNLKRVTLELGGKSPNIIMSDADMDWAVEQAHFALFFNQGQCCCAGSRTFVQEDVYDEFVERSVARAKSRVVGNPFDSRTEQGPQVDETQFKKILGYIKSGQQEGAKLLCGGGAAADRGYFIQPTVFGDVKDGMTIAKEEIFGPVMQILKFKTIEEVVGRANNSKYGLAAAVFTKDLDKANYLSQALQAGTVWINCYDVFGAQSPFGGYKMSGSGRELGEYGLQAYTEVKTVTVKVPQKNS
The note with it: cited from earlier work.

The subject of series [1] is bovine capillary endothelial (BCE) cells. The note with it: cited from earlier work.
In series [2] the test system is non-small cell lung cancer. Description: Phase II trial of disulfuram with Cisplatin/Vinorelbine in non-small cell lung cancer. Type of series: in vivo. The note with it: 120 mg daily (40 mg three times a day) for eighteen weeks, human patients. An excerpt:
A phase II, multicenter, randomized, double blind study was designed to assess the dose response of humans suffering from lung cancer to Disulfuram or a disulfuram-Cisplatin/Vinorelbine combination. Patients with histogically or cytologically documented advanced (i.e. stage Mb or stage IV), or recurrent non-small cell lung cancer, previously untreated with systemic anti-tumor therapy were selected for the study. The patients were randomly assigned to the standard first line hospital chemotherapy treatment (Cisplatin/Vinorelbine) with placebo or Cisplatin/Vinorelbine in combination with disulfuram. Treatment was provided in cycles of 21-day time periods until progression or for a maximum of 6 cycles.
The patients were further assessed for overall survival, time to progression and duration of response.
Standard administration regimens for cisplatin and Vinorelbine were followed.
Placebo capsules included the lactose carrier but were devoid of disulfuram. Each patient received the disulfuram or placebo from the treating physician.

A further series concerns cancer. The note with it: cited from earlier work.
A further series deals with C6 glioma tumor. Particulars: oral administration to mice; cited from earlier work.
Series [3] has as its target Cu/Zn Suproxide dismutase (SOD-1) (Homo sapiens, UniProt P00441). The note with it: both in vivo and in vitro; cited from earlier work.
For the next series, the system named is Lewis lung carcinoma. Particulars: oral administration to mice; cited from earlier work.
The test system of series [4] is human malignant cell lines. The note with it: combination of disulfuram and metal ions, in vitro; cited from earlier work.
The conditions of series [5]: cited from earlier work.
Series [6] concerns advanced stage IV metastatic melanoma. The note with it: daily 250-500 mg disulfuram and 50 mg zinc gluconate; three months from onset of therapy; cited from earlier work.
Series [7] has as its system acetaldehyde dehydrogenase. Particulars: cited from earlier work.
The subject of another series is angiogenesis. Particulars: oral administration, CD1 nude mice; cited from earlier work.
For series [8] the following is noted: oral DSF, cited from earlier work.
Where [9] appears, read: cultured BCE cells, prevented by copper and antioxidants.

Sequence of Cu/Zn Suproxide dismutase (SOD-1) (P00441 whole entry, species assumed): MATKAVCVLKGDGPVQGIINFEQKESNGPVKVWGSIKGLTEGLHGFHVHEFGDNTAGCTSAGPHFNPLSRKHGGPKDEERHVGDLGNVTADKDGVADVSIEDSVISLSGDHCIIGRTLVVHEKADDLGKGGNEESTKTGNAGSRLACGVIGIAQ

For `CCN(CC)C(=O)SC` [Me-DTC, diethylthiomethylcarbamate], the “inhibition of aldehyde dehydrogenase” value at aldehyde dehydrogenase was “most powerful irreversible inhibitor”.
As for `CCN(CC)C(=S)SSC(=S)N(CC)CC` [disulfuram, bis(diethylthiocarbamoyl) disulfide], in series [1] (BCE cells), the level of glutathione result was “reduced the level of glutathione”. For the same compound, in series [1] (setting [9]), the DNA synthesis result is on record as “inhibition of DNA synthesis” and the apoptosis entry is listed as “induction of apoptosis”. The “time to progression and survival of non-small cell lung cancer” value in series [2] is “extending time to progression and survival”. In addition, the “response rate, time to progression, or median survival” value in the series on cancer (about 2000 mg/subject disulfuram with 100 mg/m2 cisplatin once every 3-4 weeks, versus cisplatin alone) is “no statistically-significant difference”. For the same compound, the gastrointestinal and ototoxicities entry with cancer (about 2000 mg/subject disulfuram with 100 mg/m2 cisplatin) is given as “enhanced”. Besides, the “C6 glioma tumor development” value in the series with C6 glioma tumor is recorded as “significant inhibition”. Further, the “activity of Cu/Zn Suproxide dismutase (SOD-1)” value in [3] is reported as “inhibits activity”. For the same compound, the “reduction in the metastatic load of Lewis lung carcinoma” value with Lewis lung carcinoma is on record as 10-19 fold. In [4], the “proliferation of human malignant cell lines” value is recorded as “inhibited the proliferation”. The soluble in alcohol entry in series [5] (alcohol) is “about 3.8 g in 100 ml”. The soluble in water result in series [5] (water) was “about 20 mg in 100 ml”. For the same compound, the “reduction in tumor size” value in series [6] is listed as greater than 50%. For the same compound, the “concentration of acetaldehyde in the blood versus same amount of alcohol alone” value in series [7] (after alcohol intake under the influence of disulfuram) is given as 5 to 10 times higher. In addition, in series [7] (single dose unit), the onset of effect is 1 to 2 h and the “time of peak effect” value is listed as “about 12 hours”. In [7] (single dose unit, depends on liver enzymes), the “time effect is sustained” value is 12 to 72 h. Moreover, the “duration of effects of a single dose in some individuals” value in series [7] (single dose, some individuals) is recorded as “up to 2 weeks”. Further, the angiogenesis result in the series on angiogenesis was “inhibited angiogenesis”. Besides, the T1/2 in series [8] (elimination kinetics) is 7.3 h. In addition, the “average time to reach maximum plasma concentration” value in [8] was 8 to 10 h.

The values are drawn from patent publication US20100099757A1, “DISULFIRAM DOSES AND TREATMENT REGIMEN SUITABLE FOR TREATMENT OF ANGIOGENESIS-DEPENDENT DISORDERS” (priority 2006, published 2010).
